Measured values as given in paper PMC9942120 (iScience, 2023).

Tests used:
Experiment in all cases: direct LC-MS/MS profiling of modified tryptic peptides
Format in all cases: cell-based
[1] = biological target: T1, RTN4 (Homo sapiens, UniProt Q9NQC3); conditions: covalent at Cys1101; H358 cells, […] AMG510, […] h (methods print […] h)
T1 sequence (Q9NQC3 1-1192): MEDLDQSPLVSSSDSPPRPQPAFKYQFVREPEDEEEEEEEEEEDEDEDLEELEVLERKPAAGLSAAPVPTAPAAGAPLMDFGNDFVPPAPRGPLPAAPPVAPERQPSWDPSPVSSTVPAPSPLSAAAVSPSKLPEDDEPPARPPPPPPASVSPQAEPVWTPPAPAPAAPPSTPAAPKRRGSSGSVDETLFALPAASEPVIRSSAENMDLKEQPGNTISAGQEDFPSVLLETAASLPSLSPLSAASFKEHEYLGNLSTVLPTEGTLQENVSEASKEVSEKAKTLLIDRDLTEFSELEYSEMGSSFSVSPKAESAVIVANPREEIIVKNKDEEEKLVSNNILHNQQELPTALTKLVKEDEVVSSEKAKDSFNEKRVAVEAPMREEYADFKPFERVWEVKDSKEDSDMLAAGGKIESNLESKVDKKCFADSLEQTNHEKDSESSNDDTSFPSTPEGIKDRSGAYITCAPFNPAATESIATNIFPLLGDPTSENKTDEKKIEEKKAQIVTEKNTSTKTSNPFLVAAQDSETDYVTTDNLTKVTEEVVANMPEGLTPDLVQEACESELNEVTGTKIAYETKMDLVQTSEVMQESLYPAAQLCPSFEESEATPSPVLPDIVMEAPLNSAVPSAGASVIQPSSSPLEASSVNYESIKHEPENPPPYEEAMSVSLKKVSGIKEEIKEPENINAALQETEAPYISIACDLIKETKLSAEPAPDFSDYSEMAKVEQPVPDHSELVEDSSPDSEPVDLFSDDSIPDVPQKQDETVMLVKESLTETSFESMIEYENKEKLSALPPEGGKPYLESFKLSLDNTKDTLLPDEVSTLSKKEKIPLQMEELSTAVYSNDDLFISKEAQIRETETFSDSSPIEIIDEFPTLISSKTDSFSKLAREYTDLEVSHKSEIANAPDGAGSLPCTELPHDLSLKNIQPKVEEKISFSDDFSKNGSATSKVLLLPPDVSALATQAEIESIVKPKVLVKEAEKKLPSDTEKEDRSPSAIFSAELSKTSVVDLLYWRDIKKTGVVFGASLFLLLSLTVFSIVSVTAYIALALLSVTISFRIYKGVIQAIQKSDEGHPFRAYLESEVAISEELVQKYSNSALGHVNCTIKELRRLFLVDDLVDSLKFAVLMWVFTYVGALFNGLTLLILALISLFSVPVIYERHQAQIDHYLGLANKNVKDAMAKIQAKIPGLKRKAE

[2] = biological target: T2, SPTLC2 (Homo sapiens, UniProt O15270); conditions: covalent at Cys99; H358 cells, […] AMG510, […] h (methods print […] h)
T2 sequence (O15270 1-562): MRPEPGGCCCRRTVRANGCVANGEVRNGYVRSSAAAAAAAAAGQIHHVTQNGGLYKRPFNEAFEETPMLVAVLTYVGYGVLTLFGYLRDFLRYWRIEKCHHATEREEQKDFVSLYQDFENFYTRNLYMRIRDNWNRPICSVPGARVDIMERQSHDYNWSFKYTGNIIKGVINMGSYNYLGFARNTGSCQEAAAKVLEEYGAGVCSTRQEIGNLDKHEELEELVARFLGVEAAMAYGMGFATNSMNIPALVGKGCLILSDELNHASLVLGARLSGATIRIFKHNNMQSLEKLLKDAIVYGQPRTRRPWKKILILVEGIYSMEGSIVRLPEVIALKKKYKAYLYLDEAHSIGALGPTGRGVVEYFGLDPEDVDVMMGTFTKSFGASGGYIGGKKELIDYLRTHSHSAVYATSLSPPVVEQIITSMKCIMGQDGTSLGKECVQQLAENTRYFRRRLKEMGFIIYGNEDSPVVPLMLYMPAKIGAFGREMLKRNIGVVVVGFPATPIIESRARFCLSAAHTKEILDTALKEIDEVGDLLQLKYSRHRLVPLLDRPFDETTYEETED

[3] = biological target: T3, RAE1 (Homo sapiens, UniProt P78406); conditions: covalent at Cys106; H358 cells, […] AMG510, […] h (methods print […] h)
T3 sequence (P78406 1-368): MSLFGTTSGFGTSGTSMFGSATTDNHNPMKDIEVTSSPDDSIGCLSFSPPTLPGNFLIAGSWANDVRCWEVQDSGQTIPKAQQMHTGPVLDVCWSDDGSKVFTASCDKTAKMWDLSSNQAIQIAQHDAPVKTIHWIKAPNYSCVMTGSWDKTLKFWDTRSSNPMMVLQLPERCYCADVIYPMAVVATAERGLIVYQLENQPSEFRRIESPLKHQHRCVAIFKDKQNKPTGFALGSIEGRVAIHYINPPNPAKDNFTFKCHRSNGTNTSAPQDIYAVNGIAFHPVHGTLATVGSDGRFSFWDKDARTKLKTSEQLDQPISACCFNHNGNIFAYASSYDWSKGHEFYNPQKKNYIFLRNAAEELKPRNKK

[4] = biological target: RPE (Homo sapiens, UniProt Q96AT9); conditions: covalent at Cys5; H358 cells, […] AMG510, […] h (methods print […] h)
[5] = biological target: T4, TK1 (Homo sapiens, UniProt P04183); conditions: covalent at Cys3; H358 cells, […] AMG510, […] h (methods print […] h)
T4 sequence (P04183 2-234): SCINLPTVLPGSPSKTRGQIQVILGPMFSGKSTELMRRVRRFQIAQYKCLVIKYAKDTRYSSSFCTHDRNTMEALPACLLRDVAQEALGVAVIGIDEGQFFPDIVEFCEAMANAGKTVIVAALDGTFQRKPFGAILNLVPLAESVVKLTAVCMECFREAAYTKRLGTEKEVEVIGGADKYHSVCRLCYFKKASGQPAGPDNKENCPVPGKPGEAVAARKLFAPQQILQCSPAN

Chain of RPE (Q96AT9 2-228): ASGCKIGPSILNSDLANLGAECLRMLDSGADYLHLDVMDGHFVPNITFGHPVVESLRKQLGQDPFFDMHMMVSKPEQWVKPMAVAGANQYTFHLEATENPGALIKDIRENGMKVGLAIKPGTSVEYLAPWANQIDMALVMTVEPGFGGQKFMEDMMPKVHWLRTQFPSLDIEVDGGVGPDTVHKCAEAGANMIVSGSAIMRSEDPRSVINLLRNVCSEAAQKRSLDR

C=CC(=O)N1CCN(c2nc(=O)n(-c3c(C)ccnc3C(C)C)c3nc(-c4c(O)cccc4F)c(F)cc23)[C@@H](C)C1 [AMG510]
direct LC-MS/MS profiling of modified tryptic peptides [1]: off-targets that were identified in previous studies (RTN4 C1101 and HMOX2 C282) | direct LC-MS/MS profiling of modified tryptic peptides [2]: They included enzymes (PLOD3 C691, RPE C5, SPTLC2 C99, UBE2O C370, and TK1 C3) | direct LC-MS/MS profiling of modified tryptic peptides [3]: transporters (RAE1 C106, S100A16C4, VDAC2 C91 and C225) | direct LC-MS/MS profiling of modified tryptic peptides [4]: They included enzymes (PLOD3 C691, RPE C5, SPTLC2 C99, UBE2O C370, and TK1 C3) | direct LC-MS/MS profiling of modified tryptic peptides [5]: They included enzymes (PLOD3 C691, RPE C5, SPTLC2 C99, UBE2O C370, and TK1 C3)
